# Laboratory results from US11806358B1, “Method of treating trypanosomiasis” (KING FAISAL UNIVERSITY, priority 2023, dated 2023).
# What was measured:
# [1] = test system: T. congolense (Tc) IL3000; test: Anti-trypanosomal assay (CellTiter-Glo), TcIL3000; assay type: cell-based; details: mean ± SD
# Procedure: Six trypanosome species namely T. b. brucei (Tbb) GuTat3.1, T. b. rhodesiense (Tbr) IL1501, T. b. gambiense (Tbg) IL1922, T. evansi (Tev) Tansui, T. equiperdum (Teq) IVM-t1 and T. congolense (Tc) IL3000, were cultivated using HMI-9 medium and used in the study. The trypanocidal activity of hesperidin and neohesperidin dihydrochalcone, shown below, was assessed at 25 μg/ml or […].
# (§1) The IC50 of Neohesperidin dihydrochalcone against six trypanosome species was determined using serial dilution in a 96-well plate (Optical bottom plate, ThermoFisher SCIENTIFIC, MA, USA). After three days, […] of CellTiter-Glo Luminescent cell viability reagent (Promega Corporation, WI, USA) was aliquoted into each well and luminosity was measured with a GloMax plate reader (Promega Corporation, WI, USA).
# [2] = test system: T. b. rhodesiense (Tbr) IL1501; test: Anti-trypanosomal assay (CellTiter-Glo), TbrIL1501; assay type: cell-based; details: mean ± SD
# Procedure: (§2) Six trypanosome species namely T. b. brucei (Tbb) GuTat3.1, T. b. rhodesiense (Tbr) IL1501, T. b. gambiense (Tbg) IL1922, T. evansi (Tev) Tansui, T. equiperdum (Teq) IVM-t1 and T. congolense (Tc) IL3000, were cultivated using HMI-9 medium and used in the study. […]
# as §1
# [3] = test system: T. equiperdum (Teq) IVM-t1; test: Anti-trypanosomal assay (CellTiter-Glo), Teq IVM-t1; assay type: cell-based
# Procedure: as §2, §1
# [4] = test system: T. b. brucei (Tbb) GuTat3.1; test: Anti-trypanosomal assay (CellTiter-Glo), TbbGUTat3.1; assay type: cell-based; details: mean ± SD
# Procedure: as §2, §1
# T. evansi (Tev) Tansui = test: Anti-trypanosomal assay (CellTiter-Glo), Tev Tansui; assay type: cell-based; details: mean ± SD
# Procedure: as §2, §1
# Trypanosoma = details: previously tested; cited from earlier work
# six trypanosome species = test: Anti-trypanosomal assay, statements over all six species; assay type: cell-based, Trypanosoma; details: for antitrypanosomal activity: assayed at 0.25 or 25 μg/ml; for trypanocidal activity (words): at about 25 μg/ml
# Procedure: as §2, §1
# [5] = test system: T. b. gambiense (Tbg) IL1922; test: Anti-trypanosomal assay (CellTiter-Glo), TbgIL1922; assay type: cell-based; details: mean ± SD
# Procedure: as §2, §1
# Toxoplasma gondii = details: compared to other flavonoids and conventional medicines; cited from earlier work
# [6] = Trypanosoma equiperdum, read-out: Inhibition rate
structure (smiles),measurement,setting,value
"COc1ccc([C@@H]2CC(=O)c3c(O)cc(O[C@@H]4O[C@H](CO[C@@H]5O[C@@H](C)[C@H](O)[C@@H](O)[C@H]5O)[C@@H](O)[C@H](O)[C@H]4O)cc3O2)cc1O [Hesperidin, hesperidin, reference compound]",inhibition at 0.25 µg/mL,"[1]; Trypanosoma congolense, TcIL3000, 0.25 μg/ml, read-out: Inhibition rate",0%
same,inhibition at 25 µg/mL,"[1]; Trypanosoma congolense, TcIL3000, 25 μg/ml, read-out: Inhibition rate",0%
same,inhibition at 0.25 µg/mL,"[2]; Trypanosoma brucei, RHODESIENSE, TbrIL1501, 0.25 μg/ml, read-out: Inhibition rate",7.17 ± 3.1%
same,inhibition at 25 µg/mL,"[2]; Trypanosoma brucei, RHODESIENSE, TbrIL1501, 25 μg/ml, read-out: Inhibition rate",0%
same,inhibition at 0.25 µg/mL,[3]; [6],0.015 ± 0.022%
same,inhibition at 25 µg/mL,[3]; [6],0.97 ± 1.37%
same,inhibition at 0.25 µg/mL,"[4]; Trypanosoma brucei, TbbGUTat3.1, 0.25 μg/ml, read-out: Inhibition rate",0%
same,inhibition at 25 µg/mL,"[4]; Trypanosoma brucei, TbbGUTat3.1, 25 μg/ml, read-out: Inhibition rate",1.05 ± 0.99%
same,inhibition at 0.25 µg/mL,"T. evansi (Tev) Tansui; 0.25 μg/ml, read-out: Inhibition rate",7.67 ± 5.9%
same,inhibition at 25 µg/mL,"T. evansi (Tev) Tansui; 25 μg/ml, read-out: Inhibition rate",0%
same,trypanocidal action,Trypanosoma,did not previously show any trypanocidal action
same,antitrypanosomal activity,six trypanosome species,inadequate antitrypanosomal activity
same,trypanocidal activity (words),six trypanosome species,no activity
same,inhibition at 0.25 µg/mL,"[5]; Trypanosoma brucei, GAMBIENSE, TbgIL1922, 0.25 μg/ml, read-out: Inhibition rate",1.56 ± 2.2%
same,inhibition at 25 µg/mL,"[5]; Trypanosoma brucei, GAMBIENSE, TbgIL1922, 25 μg/ml, read-out: Inhibition rate",0%
"COc1ccc(CCC(=O)c2c(O)cc(O[C@@H]3O[C@H](CO)[C@@H](O)[C@H](O)[C@H]3O[C@@H]3O[C@@H](C)[C@H](O)[C@@H](O)[C@H]3O)cc2O)cc1O [Neohesperidin dihydrochalcone, neohesperidin dihydrochalcone]",Inhibition rate,"[1]; TcIL3000, 0.25 μg/ml",0%
same,Inhibition rate,"[1]; TcIL3000, 25 μg/ml",82.07 ± 6.4%
same,IC50,"[1]; TcIL3000, three days",22.53 ± 2.3 µg/mL
same,Inhibition rate,"[2]; TbrIL1501, 0.25 μg/ml",3.95 ± 5.59%
same,Inhibition rate,"[2]; TbrIL1501, 25 μg/ml",99.63 ± 0.25%
same,Inhibition rate,"[2]; TbrIL1501, 25 μg/ml, listed as neohesperidin dihydrochalcone",more than 99%
same,IC50,"[2]; TbrIL1501, three days",9.47 ± 2.73 µg/mL
same,Inhibition rate,"[3]; Teq IVM-t1, 0.25 μg/ml, mean ± SD",0.59 ± 0.84%
same,Inhibition rate,"[3]; Teq IVM-t1, 25 μg/ml, mean ± SD",98.8 ± 0.17%
same,Inhibition rate,"[3]; Teq IVM-t1, 25 μg/ml, mean ± SD, listed as neohesperidin dihydrochalcone",more than 99%
same,IC50,"[3]; Teq IVM-t1, three days, mean ± SD",11.38 ± 3.93 µg/mL
same,Inhibition rate,"[4]; TbbGUTat3.1, 0.25 μg/ml",2.89 ± 1.69%
same,Inhibition rate,"[4]; TbbGUTat3.1, 25 μg/ml",99.65 ± 0.2%
same,Inhibition rate,"[4]; TbbGUTat3.1, 25 μg/ml, listed as neohesperidin dihydrochalcone",more than 99%
same,IC50,"[4]; TbbGUTat3.1, three days",11.97 ± 0.026 µg/mL
same,Inhibition rate,T. evansi (Tev) Tansui; 0.25 μg/ml,3.59 ± 5.5%
same,Inhibition rate,T. evansi (Tev) Tansui; 25 μg/ml,99.18 ± 0.22%
same,Inhibition rate,"T. evansi (Tev) Tansui; 25 μg/ml, listed as neohesperidin dihydrochalcone",more than 99%
same,IC50,T. evansi (Tev) Tansui; three days,12.69 ± 0.98 µg/mL
same,antitrypanosomal activity,six trypanosome species,broad-spectrum and strong inhibition of trypanosomal growth
same,trypanocidal activity (words),six trypanosome species,substantial trypanocidal activity
same,trypanocidal activity (words),six trypanosome species; listed as neohesperidin dihydrochalcone,suppressed all the test strains
same,"inhibition rate, range over the species",six trypanosome species; low concentration of 0.25 μg/ml,1.09-3.95%
same,IC50 range over the six species,six trypanosome species; six Trypanosoma species,8.88 to 22.53 µg/mL
same,Inhibition rate,"[5]; TbgIL1922, 0.25 μg/ml",1.09 ± 0.64%
same,Inhibition rate,"[5]; TbgIL1922, 25 μg/ml",99.63 ± 0.28%
same,Inhibition rate,"[5]; TbgIL1922, 25 μg/ml, listed as neohesperidin dihydrochalcone",more than 99%
same,IC50,"[5]; TbgIL1922, three days",8.88 ± 3.84 µg/mL
COc1ccc([C@@H]2CC(=O)c3c(O)cc(O[C@@H]4O[C@H](CO)[C@@H](O)[C@H](O)[C@H]4O[C@@H]4O[C@@H](C)[C@H](O)[C@@H](O)[C@H]4O)cc3O2)cc1O [neohesperidin],antiprotozoal activity against Toxoplasmosis,Toxoplasma gondii,not as effective as other standard drugs or flavonoids
